Measured values: ChEMBL document CHEMBL1152232, “Muscarinic acetylcholine receptor antagonists: SAR and optimization of tyrosine ureas” (Bioorg Med Chem Lett, 2008)

Experiments:
Format in all cases: functional, cell-based
Details in all cases: for Kb: read-out: pA2 (converted)
[1] = target: Muscarinic acetylcholine receptor M3 (Homo sapiens, UniProt P20309); experiment: Antagonist activity at human recombinant muscarinic M3 receptor expressed in CHO cells assessed as inhibition of acetylcholine-induced intracellular Ca2+ mobilization by FLIPR assay
[2] = target: T1, Muscarinic acetylcholine receptor M1 (Homo sapiens, UniProt P11229); experiment: Antagonist activity at human recombinant muscarinic M1 receptor expressed in CHO cells assessed as inhibition of acetylcholine-induced intracellular Ca2+ mobilization by FLIPR assay
T1 sequence (P11229 whole entry): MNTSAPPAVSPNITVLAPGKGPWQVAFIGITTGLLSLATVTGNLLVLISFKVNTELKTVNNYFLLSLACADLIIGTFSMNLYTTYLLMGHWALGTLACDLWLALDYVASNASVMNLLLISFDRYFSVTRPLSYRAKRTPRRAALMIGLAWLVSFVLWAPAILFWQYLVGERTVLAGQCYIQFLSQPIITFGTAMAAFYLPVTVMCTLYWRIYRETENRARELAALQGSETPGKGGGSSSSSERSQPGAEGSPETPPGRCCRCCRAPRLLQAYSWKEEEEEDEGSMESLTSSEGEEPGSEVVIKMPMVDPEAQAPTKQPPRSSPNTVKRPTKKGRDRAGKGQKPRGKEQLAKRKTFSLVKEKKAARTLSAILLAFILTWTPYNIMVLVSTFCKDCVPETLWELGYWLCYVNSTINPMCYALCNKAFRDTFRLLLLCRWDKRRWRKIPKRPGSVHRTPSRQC

[3] = target: T2, Muscarinic acetylcholine receptor M2 (Homo sapiens, UniProt P08172); experiment: Antagonist activity at human recombinant muscarinic M2 receptor expressed in CHO cells coexpressing chimeric G protein Gqi5 assessed as inhibition of acetylcholine-induced intracellular Ca2+ mobilization by FLIPR assay
T2 sequence (P08172 whole entry): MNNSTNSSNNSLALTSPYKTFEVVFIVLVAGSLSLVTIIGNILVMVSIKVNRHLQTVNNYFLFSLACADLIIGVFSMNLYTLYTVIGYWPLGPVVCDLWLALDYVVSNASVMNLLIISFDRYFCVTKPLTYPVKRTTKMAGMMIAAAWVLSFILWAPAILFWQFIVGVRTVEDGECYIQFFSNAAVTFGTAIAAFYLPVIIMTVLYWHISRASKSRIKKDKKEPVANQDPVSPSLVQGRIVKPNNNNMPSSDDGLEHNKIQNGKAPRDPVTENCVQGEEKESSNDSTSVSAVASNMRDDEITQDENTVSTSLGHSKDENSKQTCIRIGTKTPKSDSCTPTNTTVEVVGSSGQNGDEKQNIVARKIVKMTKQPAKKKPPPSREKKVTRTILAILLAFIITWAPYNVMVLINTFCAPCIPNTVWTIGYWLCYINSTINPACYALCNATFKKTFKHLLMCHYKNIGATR

Chain of Muscarinic acetylcholine receptor M3 (P20309 whole entry): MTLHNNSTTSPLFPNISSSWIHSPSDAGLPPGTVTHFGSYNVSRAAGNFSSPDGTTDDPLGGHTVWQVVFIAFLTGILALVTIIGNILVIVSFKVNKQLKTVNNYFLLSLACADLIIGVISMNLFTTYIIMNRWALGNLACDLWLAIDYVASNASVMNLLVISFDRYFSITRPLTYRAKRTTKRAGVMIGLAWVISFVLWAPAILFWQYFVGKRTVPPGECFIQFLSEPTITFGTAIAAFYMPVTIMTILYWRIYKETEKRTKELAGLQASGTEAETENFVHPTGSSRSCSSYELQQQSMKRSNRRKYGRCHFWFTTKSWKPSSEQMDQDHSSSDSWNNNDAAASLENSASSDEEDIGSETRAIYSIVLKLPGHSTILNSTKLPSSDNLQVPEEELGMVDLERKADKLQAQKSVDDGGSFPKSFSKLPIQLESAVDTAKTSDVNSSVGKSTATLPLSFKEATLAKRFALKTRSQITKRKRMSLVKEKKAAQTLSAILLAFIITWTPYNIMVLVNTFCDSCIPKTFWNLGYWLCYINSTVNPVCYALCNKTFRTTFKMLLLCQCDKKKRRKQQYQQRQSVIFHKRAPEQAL

Row | Structure (SMILES) | Kb [1] [nM] | Kb [2] [nM] | Kb [3] [nM] | IC50 [1] [nM] | IC50 [2] [nM] | IC50 [3] [nM]
1 | CC(C)OC(=O)c1ccc(NC(=O)N[C@@H](Cc2ccc(O)cc2)C(=O)N[C@H]2CCC[N+]3(CCCCCC3)C2)cc1 | 3.16 | 79.4 | 5.01 | – | – | –
2 | CCOC(=O)c1ccc(NC(=O)N[C@@H](Cc2ccc(O)cc2)C(=O)N[C@H]2CC[N+](C)(Cc3ccc4c(c3)OCO4)C2)cc1 (stereo not given in full) | – | – | – | 6.31 | 158 | 39.8
3 | CCOC(=O)c1ccc(NC(=O)N[C@@H](Cc2ccc(C(=O)c3ccccc3)cc2)C(=O)N[C@H]2CC[N+](C)(Cc3ccc4c(c3)OCO4)C2)cc1 (stereo not given in full) | – | – | – | 12.6 | 10 | 2.51
4 | CCOC(=O)c1ccc(NC(=O)N[C@@H](Cc2ccc(OC)cc2)C(=O)N[C@H]2CC[N+](C)(Cc3ccc4c(c3)OCO4)C2)cc1 (stereo not given in full) | – | – | – | 39.8 | 79.4 | 5.01
5 | O=C(Nc1ccc(C(=O)OCC2CC2)cc1)N[C@@H](Cc1ccc(O)cc1)C(=O)NC1CCN(Cc2ccc(O)cc2)C1 (stereo not given in full) | – | – | – | 100 | 1000 | 398
6 | CC(C)COC(=O)c1ccc(NC(=O)N[C@@H](Cc2ccc(O)cc2)C(=O)NC2CCN(Cc3ccc(O)cc3)C2)cc1 (stereo not given in full) | – | – | – | 251 | > 3160 | 1260
7 | COC(=O)c1ccc(NC(=O)N[C@@H](Cc2ccc(O)cc2)C(=O)NC2CCN(Cc3ccc(O)cc3)C2)cc1 (stereo not given in full) | – | – | – | 25.1 | 1000 | 316
8 | CCCOC(=O)c1ccc(NC(=O)N[C@@H](Cc2ccc(O)cc2)C(=O)NC2CCN(Cc3ccc(O)cc3)C2)cc1 (stereo not given in full) | – | – | – | 10 | 1000 | 100
9 | CC(C)NC(=O)c1ccc(NC(=O)N[C@@H](Cc2ccc(O)cc2)C(=O)NC2CCN(Cc3ccc(C#N)cc3)C2)cc1 (stereo not given in full) | – | – | – | 100 | > 3160 | 1580
10 | Cc1noc(-c2ccc(NC(=O)N[C@@H](Cc3ccc(O)cc3)C(=O)N[C@H]3CCC[N+](C)(Cc4ccc(O)cc4)C3)cc2)n1 (stereo not given in full) | 2 | 158 | 6.31 | – | – | –
11 | CCOC(=O)c1ccc(NC(=O)N[C@@H](Cc2ccc(C)cc2)C(=O)N[C@H]2CC[N+](C)(Cc3ccc4c(c3)OCO4)C2)cc1 (stereo not given in full) | – | – | – | 15.8 | 100 | 10
12 | CC(C)OC(=O)c1ccc(NC(=O)N[C@@H](Cc2ccc(O)cc2)C(=O)N[C@H]2CCC[N+](CC3CC3)(CC3CC3)C2)cc1 | 0.631 | 39.8 | 5.01 | – | – | –
13 | CCOC(=O)c1ccc(NC(=O)N[C@@H](Cc2ccc(-c3ccccc3)cc2)C(=O)N[C@H]2CC[N+](C)(Cc3ccc4c(c3)OCO4)C2)cc1 (stereo not given in full) | – | – | – | 15.8 | 12.6 | 5.01
14 | N#Cc1ccc(CN2CCC(NC(=O)[C@H](Cc3ccc(O)cc3)NC(=O)Nc3ccc(C(=O)NCc4ccccc4)cc3)C2)cc1 (stereo not given in full) | – | – | – | 1580 | > 3160 | > 3160

Continued, values first:

Row | Kb [1] [nM] | Kb [2] [nM] | Kb [3] [nM] | IC50 [1] [nM] | IC50 [2] [nM] | IC50 [3] [nM] | Structure (SMILES)
15 | – | – | – | 501 | > 3160 | > 3160 | N#Cc1ccc(CN2CCC(NC(=O)[C@H](Cc3ccc(O)cc3)NC(=O)Nc3ccc(C(=O)Nc4ccccc4)cc3)C2)cc1 (stereo not given in full)
16 | – | – | – | 6.31 | 200 | 39.8 | CCOC(=O)c1ccc(NC(=O)N[C@@H](Cc2ccc(O)cc2)C(=O)N[C@H]2CC[N+](C)(Cc3ccc(F)cc3)C2)cc1 (stereo not given in full)
17 | – | – | – | 15.8 | 1260 | 15.8 | CCOC(=O)c1ccc(NC(=O)N[C@@H](Cc2ccc(N)cc2)C(=O)N[C@H]2CC[N+](C)(Cc3ccc4c(c3)OCO4)C2)cc1 (stereo not given in full)
18 | – | – | – | 126 | 2000 | 100 | CCOC(=O)c1ccc(NC(=O)N[C@@H](Cc2ccccc2Cl)C(=O)N[C@H]2CC[N+](C)(Cc3ccc4c(c3)OCO4)C2)cc1 (stereo not given in full)
19 | 0.631 | 79.4 | 3.98 | – | – | – | CC(C)NC(=O)c1ccc(NC(=O)N[C@@H](Cc2ccc(O)cc2)C(=O)N[C@H]2CCC[N+](C)(Cc3ccc(O)cc3)C2)cc1 (stereo not given in full)
20 | – | – | – | 7.94 | 25.1 | 3.98 | CCOC(=O)c1ccc(NC(=O)N[C@@H](Cc2cccc(Cl)c2)C(=O)N[C@H]2CC[N+](C)(Cc3ccc4c(c3)OCO4)C2)cc1 (stereo not given in full)
